Data on 18 compounds can be found in ChEMBL document CHEMBL5500337, “Synthesis and anti-liver fibrosis activity of imidazole and thiazole compounds containing amino acids” (Eur J Med Chem, 2024).

Activity calls are given as the source filed them.

In data set [1] the target is Mitogen-activated protein kinase 14 (Homo sapiens, UniProt Q16539). The experiment in a line: Inhibition of human recombinant p38alpha expressed in Escherichia coli incubated for 60 mins in presence of ATP by microplate scintillation counter.
In data set [2] the test system is LX-2. Kind of data set: Cytotoxicity against human LX-2 cells assessed as reduction in cell viability upto 50 uM incubated for 24 hrs by MTT assay. It counts as toxicity, cell-based. The conditions noted are these: lx-2, 24 h. In general terms: Tetrazolium dyes change colour on reduction, which living cells bring about.
The test system of data set [3] is LX-2. Kind of data set: Anti-fibrotic activity in human LX-2 cells assessed as inhibition of alpha-SMA expression preincubated with compound for 1 hrs followed by TGFbeta addition and measured after 24 hrs by DAPI staining based confocal laser scanning microscopic analysis. The conditions noted are these: dose 5-20 µM, time 25.0 hrs. It counts as functional, cell-based.

Data set [4] deals with LX-2. The experiment in a line: Anti-fibrotic activity in human LX-2 cells assessed as reduction in alpha-SMA protein expression at 20 uM preincubated with compound for 1 hrs followed by TGFbeta addition and measured after 24 hrs by Western blot analysis. The conditions noted are these: time 25.0 hrs. It counts as functional, cell-based.
Data set [5] has as its system LX-2. Kind of data set: Anti-fibrotic activity in human LX-2 cells assessed as reduction in collagen I protein expression at 20 uM preincubated with compound for 1 hrs followed by TGFbeta addition and measured after 24 hrs by Western blot analysis. It counts as functional, cell-based. The conditions noted are these: time 25.0 hrs. Background: In western blotting, separated proteins are transferred to a membrane and probed.

The test system of data set [6] is LX-2. The experiment in a line: Anti-fibrotic activity in human LX-2 cells assessed as inhibition of alpha-SMA mRNA expression at 5 uM preincubated with compound for 1 hrs followed by TGFbeta addition and measured after 24 hrs by RT-PCR analysis. It counts as functional, cell-based. The conditions noted are these: time 25.0 hrs.
Data set [7] is described as follows: AUC (0 to t) in male Sprague-Dawley rat at 4 mg/kg, iv measured after 8 hrs by UPLC-MS/MS analysis. It counts as ADME, organism-based. The conditions noted are these: in vivo.
Data set [8] is described as follows: AUC (0 to infinity) in male Sprague-Dawley rat at 4 mg/kg, iv measured after 8 hrs by UPLC-MS/MS analysis. It counts as ADME, organism-based. The conditions noted are these: in vivo.
Data set [9] is described as follows: MRT (0 to t) in male Sprague-Dawley rat at 4 mg/kg, iv measured after 8 hrs by UPLC-MS/MS analysis. It counts as ADME, organism-based. The conditions noted are these: in vivo.
A short description of data set [10]: Half-life in male Sprague-Dawley rat at 4 mg/kg, iv measured after 8 hrs by UPLC-MS/MS analysis. The conditions noted are these: in vivo. It counts as ADME, organism-based.
The nature of data set [11]: Tmax in male Sprague-Dawley rat at 4 mg/kg, iv measured after 8 hrs by UPLC-MS/MS analysis. The conditions noted are these: in vivo. It counts as ADME, organism-based.
A short description of data set [12]: Cmax in male Sprague-Dawley rat at 4 mg/kg, iv measured after 8 hrs by UPLC-MS/MS analysis. The conditions noted are these: in vivo. It counts as ADME, organism-based.
Data set [13] is described as follows: Clearance in male Sprague-Dawley rat at 4 mg/kg, iv measured after 8 hrs by UPLC-MS/MS analysis. It counts as ADME, organism-based. The conditions noted are these: in vivo.
Data set [14] in a line: Oral bioavailability in male Sprague-Dawley rat at 15 mg/kg measured after 8 hrs by UPLC-MS/MS analysis. It counts as ADME, organism-based. The conditions noted are these: in vivo.
Data set [15] can be described thus: AUC (0 to t) in male Sprague-Dawley rat at 15 mg/kg, po measured after 8 hrs by UPLC-MS/MS analysis. The conditions noted are these: in vivo. It counts as ADME, organism-based.
A short description of data set [16]: AUC (0 to infinity) in male Sprague-Dawley rat at 15 mg/kg, po measured after 8 hrs by UPLC-MS/MS analysis. It counts as ADME, organism-based. The conditions noted are these: in vivo.
Data set [17] is described as follows: MRT (0 to t) in male Sprague-Dawley rat at 15 mg/kg, po measured after 8 hrs by UPLC-MS/MS analysis. The conditions noted are these: in vivo. It counts as ADME, organism-based.
Data set [18] can be described thus: Half-life in male Sprague-Dawley rat at 15 mg/kg, po measured after 8 hrs by UPLC-MS/MS analysis. It counts as ADME, organism-based. The conditions noted are these: in vivo.
Data set [19] can be described thus: Tmax in male Sprague-Dawley rat at 15 mg/kg, po measured after 8 hrs by UPLC-MS/MS analysis. It counts as ADME, organism-based. The conditions noted are these: in vivo.
The nature of data set [20]: Cmax in male Sprague-Dawley rat at 15 mg/kg, po measured after 8 hrs by UPLC-MS/MS analysis. The conditions noted are these: in vivo. It counts as ADME, organism-based.
Data set [21] in a line: Clearance in male Sprague-Dawley rat at 15 mg/kg, po measured after 8 hrs by UPLC-MS/MS analysis. It counts as ADME, organism-based. The conditions noted are these: in vivo.
Data set [22] has as its system LX-2. Kind of data set: Cytotoxicity against human LX-2 cells assessed as reduction in cell viability upto 100 uM incubated for 24 hrs by MTT assay. It counts as toxicity, cell-based. The conditions noted are these: lx-2, 24 h.
The subject of data set [23] is LX-2. The experiment in a line: Cytotoxicity against human LX-2 cells assessed as reduction in cell viability at 100 uM incubated for 24 hrs by MTT assay. It counts as toxicity, cell-based. The conditions noted are these: lx-2, 24 h.
Data set [24] relates to LX-2. Kind of data set: Cytotoxicity against human LX-2 cells assessed as reduction in cell viability at 6.25 uM incubated for 24 hrs by MTT assay. It counts as toxicity, cell-based. The conditions noted are these: lx-2, 24 h.
Data set [25] deals with LX-2. The experiment in a line: Anti-fibrotic activity in human LX-2 cells assessed as reduction in alpha-SMA protein expression at 5 uM preincubated with compound for 1 hrs followed by TGFbeta addition and measured after 24 hrs by Western blot analysis. It counts as functional, cell-based. The conditions noted are these: time 25.0 hrs.

Chain of Mitogen-activated protein kinase 14 (Q16539 whole entry): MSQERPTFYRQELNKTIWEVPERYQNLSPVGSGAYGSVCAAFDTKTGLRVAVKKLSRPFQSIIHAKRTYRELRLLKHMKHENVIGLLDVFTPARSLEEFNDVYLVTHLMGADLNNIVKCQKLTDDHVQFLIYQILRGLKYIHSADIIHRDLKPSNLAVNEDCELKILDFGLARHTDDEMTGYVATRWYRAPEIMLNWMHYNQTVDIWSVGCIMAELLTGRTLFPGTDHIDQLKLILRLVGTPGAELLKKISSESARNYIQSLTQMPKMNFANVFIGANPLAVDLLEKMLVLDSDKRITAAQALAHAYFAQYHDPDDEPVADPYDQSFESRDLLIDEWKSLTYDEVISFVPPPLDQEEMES

On to `Cc1cccc(-c2[nH]c(CNC(=O)[C@H]3CCCCN3)nc2-c2ccc3ncnn3c2)n1`, for which the IC50 in data set [1] was more than 1 µM.
For `Cc1cccc(-c2nc(NC(=O)[C@H](N)Cc3ccccc3)sc2-c2ccc3ncnn3c2)n1`, the IC50 in data set [1] was more than 3 µM.
As to `Cc1cccc(-c2[nH]c(CNC(=O)[C@H](N)Cc3ccccc3)nc2-c2ccc3ncnn3c2)n1`, the Activity entry with LX-2 [2] was “Non-Toxic”; in the data set on LX-2 [3], “Dose-Dependent Effect”. Moreover, the result in the data set with LX-2 [4], in the data set on LX-2 [5] and in the data set with LX-2 [6] was Active. Also, the AUC(0-t) at 8 h in data set [7] is 12500 ng·h/mL; in [15] it was 1220 ng·h/mL. The figures for the AUC in data set [8] and in data set [16] were 12802 ng·h/mL and 2667 ng·h/mL, respectively. The MRT last at 8 h in data set [9] was 1.01 h; in data set [17] it was 2.79 h. For the same compound, the values for the half-life in data set [10] and in data set [18] were 2.24 h and 9.14 h, respectively. Also, the Tmax in [11] was determined as 0 h; in [19] it was 6.6 min. Besides, the values for the Cmax in [12] and in [20] were 43100 ng/mL and 1390 ng/mL, respectively. Moreover, the clearance in data set [13] was 5.23 mL/min/kg. The compound also registered a F in data set [14] of 2.59%. Besides, in data set [21], the CL/F was 109 mL/min/kg.
In the case of `Cc1cccc(-c2[nH]c(CNC(=S)[C@@H](N)Cc3ccccc3)nc2-c2ccc3ncnn3c2)n1`, the IC50 in data set [1] is more than 3 µM.
Turning to `Cc1cccc(-c2nc(NC(=O)[C@@H](N)Cc3ccccc3)sc2-c2ccc3ncnn3c2)n1`, the IC50 in data set [1] was more than 3 µM.
With `Cc1cccc(-c2[nH]c(CNC(=O)[C@H](C)N)nc2-c2ccc3ncnn3c2)n1`, in data set [1], the IC50 was more than 3 µM.
Consider `Cc1cccc(-c2[nH]c(CNC(=O)[C@@H](N)CC(C)C)nc2-c2ccc3ncnn3c2)n1`, for which, in data set [1], the IC50 is more than 3 µM.
Same read-out and setting: as for `Cc1cccc(-c2nc(NC(=O)[C@H](C)N)sc2-c2ccc3ncnn3c2)n1`, the figure is more than 1 µM; as for `Cc1cccc(-c2[nH]c(CNC(=S)[C@H](N)Cc3ccccc3)nc2-c2ccc3ncnn3c2)n1`, more than 1 µM.
For the compound `Cc1cccc(-c2nc(NC(=O)[C@@H](N)CC(C)C)sc2-c2ccc3ncnn3c2)n1`, the IC50 in data set [1] is more than 1 µM. The Activity result with LX-2 [22] was “Non-Toxic”. The result in the data set with LX-2 [4], in the data set with LX-2 [5] and with LX-2 [6] was Active.
On to `Cc1cccc(-c2nc(NC(=O)[C@@H]3CCCCN3)sc2-c2ccc3ncnn3c2)n1`, for which, in [1], the IC50 was more than 3 µM.
As to `Cc1cccc(-c2nc(NC(=S)[C@H](N)CC(C)C)sc2-c2ccc3ncnn3c2)n1`, the IC50 in data set [1] was more than 1 µM.
As for `Cc1cccc(-c2[nH]c(CNC(=O)[C@H](N)CC(C)C)nc2-c2ccc3ncnn3c2)n1`, in data set [1], the IC50 is more than 3 µM.
`Cc1cccc(-c2nc(NC(=O)[C@H](N)CC(C)C)sc2-c2ccc3ncnn3c2)n1`: the half-inhibitory concentration (IC50) in data set [1] was more than 3 µM. For the same compound, the Activity entry in the data set with LX-2 [23] was “Toxic”; with LX-2 [24], “Non-Toxic”. Also, the result with LX-2 [4], in the data set on LX-2 [5] and in the data set with LX-2 [6] was Active.
For `Cc1cccc(-c2nc(NC(=O)[C@H]3CCCCN3)sc2-c2ccc3ncnn3c2)n1`, the IC50 in [1] was more than 3 µM.
On the same count and under the same terms, next, `Cc1cccc(-c2[nH]c(CNC(=O)[C@@H]3CCCCN3)nc2-c2ccc3ncnn3c2)n1`: more than 3 µM.
`Cc1cccc(-c2nc(NC(=S)[C@@H](N)CC(C)C)sc2-c2ccc3ncnn3c2)n1`: the IC50 in data set [1] was more than 1 µM.
In the case of `Cc1cccc(-c2nn3c(c2-c2ccnc4ccc(C(N)=O)cc24)CCC3)n1`, the result in the data set with LX-2 [25] was Active.

By IC50 is commonly meant the concentration that gives 50% inhibition. For orientation: AUC(0-t) means exposure summed from dosing to a finite time, without extrapolation to infinity. By AUC is commonly meant the area under the concentration-time curve, a measure of exposure. One may read the MRT last as a mean duration of stay, worked out from the concentration-time curve. For orientation: half-life means the time needed for the level to fall by half in the phase considered. A higher half-life goes with slow loss. One may read the Tmax as the time at which the peak concentration occurs. A word on the Cmax: it is the maximum level reached in the sampled fluid or tissue. In general, clearance refers to the rate of elimination divided by the concentration. Low readings indicate inefficient removal, high ones efficient removal. A word on the CL/F: it is clearance divided by bioavailability, as obtained after extravascular dosing.
